{
  "source": "patent US7361279B2",
  "about": "“Removing metals from solution using metal binding compounds and sorbents therefor” (priority 2002, dated 2008)",
  "key": {"[1]": {"assay": "Removal of benzotriazoles from solution by granular activated carbon", "format": "physicochemical", "details": "for soluble 5-MeBT content after exposure to GAC (HPLC): after 24 hours", "description": "(§1) A spectra-Physics high performance liquid chromatograph (HPLC) fitted with a UV detector (λ=254 nm) was used. 5-MeBT analysis was performed isocratically using two Zorbax Rx-C8 4.6×250 mm columns in series (MacMod Analytical, Inc., Chadds Ford, Pa., USA). The eluent consisted of a phosphate buffer mixed in a 70:30 ratio with HPLC grade acetylnitrile at a flow rate of 1.5 ml/minute with a sample injection volume of 200 μl. All samples were centrifuged at 10,000×g for 5 minutes prior to analysis.\nUsing simple time-series analysis of soluble methylbenzotriazole, the minimum time required for complete sorption was determined. Each experiment reached equilibrium before 48 hours, using a criteria of no more than 4% change in aqueous concentration during the observation period. Mass balances were used to determine the equilibrium portioning of MeBT in the microcosms system. Aqueous concentration data was used to calculate the amount of MeBT associated with GAC by differences. The equilibrium partioning data were then inverted and log-transformed, and tested against widely-accepted sorption models for “best-fit”.\nas §1, with “chromatography” for “chromatograph”, “(HPLC)” for “(HPLC) fitted”, “UV-Vis Detector” for “a UV detector”, “Methylbenzotriazole” for “5-MeBT”\n(§2) Microcosms used for benzotriazole-metal immobilization experiments on GAC. Microcosms consisted of 250 ml Erlenmeyer flasks containing 75 mls of test solution with and without activated carbon. 75 milliliter aliquots of MeBT solution containing known GAC masses were placed in 250 ml Erlenmeyer flask. The samples were allowed to equilibrate on a shaker table at 15° C. for no more than 24 hours. Following equilibration, the samples were centrifuged and the supernatant was analyzed for both metal and 5-MeBT content. Metal-ligand molar ratios of 1:0, 1:2, 1:10, and 1:30 were employed. Identical experiments were conducted for each metal in the absence of GAC for the same metal: ligand ratios to determine any possible metal removal effects associated with precipitation. The resulting aqueous metal concentrations were measured by DPP and confirmed by inductive coupled plasma/atomic emission spectroscopy (ARL 3410 ICP/AES) in an EPA certified laboratory in the Geology department at University of Colorado. 5-MeBT was measured by both DPP and HPLC methods."}, "[2]": {"details": "cited from earlier work"}, "[3]": {"assay": "Batch microcosm immobilization of copper on Calgon MRX-P GAC", "description": "(§3) Experiments were executed to bracket a range of MeBT and carbon concentrations near the sorptive capacity of calgon MRX, as judged by Freundlich isotherm modeling (c.a. 49 mg/g). Lead, copper, and zinc were chosen as models to study the complexation behavior and sorptive interactions when MeBT is bound to different transition metals. Different ratios of ligand (MeBT) and metal were chosen based on the coordination stichiometry of MeBT with each metal. The ionic strength was held constant at 0.0 1M, and H2SO4 and HNO3 were used as background electrolytes. Lead, copper and zinc concentrations of 10 mg/L and carbon concentrations of 5 g/L were employed for batch microcosm assays.\nas §2"}, "[4]": {"assay": "Differential pulse polarography, Zn(II) complexation", "format": "binding", "details": "DPP, increasing MeBT", "from_the_text": "(§4) Such an approach was applied to estimate the strength of metal-benzotriazole interactions in acidic solutions. The current that flows during a single life time of a dropping mercury electrode (DME) is held at a given potential in a polarograph and is described by the Ilkovic Equation: Id=708nDo^1/2C0*m^2/3t^1/6 (2)\n(§5) In their classic report, Deford and Hume (1951) defined a series of functions, where the change in reduction potential of a target ion, measured with a polarograph, can be directely related to its complexation stability by the progressive addition of a known ligand.\n(§6) βmxj (the overall stability constant), and j (maximum number of ligands coordinated with a metal through a reversible series of complexing interactions), were determined for Cu(II), Pb(II) and Zn(II) interactions with benzotriazoles. The present application reports the development and use of polarographic methods for quantification of benzotriazole complexes to study their potential for immobilizing metals on activated carbon surfaces.\nPolarographic and voltammetric measurements were performed with a CV-50W Voltametric analyzer fitted with a controlled growth mercury electrode; this multimode electrode was used in a static mercury drop electrode (SMDE) mode. […]"}, "[5]": {"assay": "Batch microcosm immobilization of lead on Calgon MRX-P GAC", "description": "as §3, §2"}, "[6]": {"assay": "Differential pulse polarography, stability constants (DeFord-Hume, Lingane), Cu(II)", "format": "binding", "from_the_text": "as §4, §5\n(§7) Stability constants are obtained as follows where F0(x)=ΣβnCL^n=β0β1CL+β2CL^2+ . . . +βnCL^n (7)\n(§8) In order to obtain β1, . . . , βn, a widely-accepted graphical extrapolation method derived by Leden (1941) was applied. Sequential plots of equation (7) (Fn(X) vs. C) yielded a family of curves, through which coordination chemistry between metals and benzotriazoles was determined.\n(§9) The maximum coordination number was also independently determined using the Lingane method reported by Crow (1969) with a plot of ΔE1/2 Vs. Log Cx relationship, using the Lingane equation: […]\nas §6\n(§10) Polarographic and voltammetric measurements were performed with a CV-50W Voltametric analyzer fitted with a controlled growth mercury electrode; this multimode electrode was used in a static mercury drop electrode (SMDE) mode. The mercury electrode was multiplexed using BAS commercial software (Bioanalytical Systems, Inc., Lafayette, Ind., USA) a platinum auxiliary electrode and an Ag/AgCl (3 M KCl) reference electrode. All potentials were normalized to the Ag/AgCl electrode. A system scan rate of 5 mV s^−1 was used with a drop time of 1 sec. For DPP, the pulse amplitude was 100 mV with a sample width of 17 msec. A repeatable drop size was produced using a borosilicate capillary tube. The solenoid activation setting was 100 ms for all runs.\n(§11) For the stability constant calculations, a 15 ml supporting electrolyte solution was pipetted into the voltammetric cell and the metal salt addition was adjusted to yield a final concentration of approximately 10^−5 M. The ligand (5-methybenzotriazole) was then added in increasing concentration from 0 to 1×10^−2 M. Polarograms were constructed, and the shift in the half wave potential was recorded after each ligand addition. All DPP measurements were made in triplicate."}, "[7]": {"assay": "Batch microcosm immobilization of zinc on Calgon MRX-P GAC", "details": "pH 3, ligand to metal ratio 30:1, carbon 5 g/L", "description": "as §3\nas §2, with “The samples were allowed to equilibrate on a shaker table at 15° C. for no more than 24 hours.” left out, “Metal-ligand molar ratios of 1:0, 1:2, 1:10, and 1:30 were employed. Identical experiments were conducted for each metal in the absence of GAC for the same metal: ligand ratios to determine any possible metal removal effects associated with precipitation.” left out"}, "[8]": {"assay": "Desorption of MeBT from GAC surfaces", "format": "physicochemical", "details": "30 day period, metal- and benzotriazole-free solutions, pH 2-5, varying ionic strength", "description": "After sorption, GAC was removed, washed with water, and then transferred to a clean electrolyte solution at different pH (pH 2-4) to investigate the stability of the metal: 5-MeBT complexes once immobilized on activated carbon. After 24 hours of equilibration and at time intervals 0, 7, and 30 days, 5 mls of each sample was centrifuged and analyzed for both metal and 5-MeBT content using both ICP/EAS and HPLC.\nThe potential for the desorption of MeBT from GAC surfaces was monitored over a 30 day period."}, "[9]": {"assay": "Differential pulse polarography, stability constants (DeFord-Hume, Lingane), Pb(II)", "format": "binding", "from_the_text": "as §4, §5, §7, §8, §9, §6, §10, §11"}, "[10]": {"details": "Cu(II) 5 × 10^−5 M, 5-MeBT 0-3 × 10^−3 M"}, "[11]": {"details": "[Cu(II)]=5×10^−5M, pH=2.5, T=25° C."}, "[12]": {"details": "Pb(II) 3 × 10^−5 M, 5-MeBT 0-7 × 10^−3 M"}, "[13]": {"details": "[Pb(II)]=3×10^−5M, pH=3, T=25° C."}},
  "note": "“And” between values parts separate entries of the source, which are not always exact repeats. Equal values may be shown once.",
  "data": [
    {"smiles": "Cc1ccc2[nH]nnc2c1", "note": "[5-MeBT, 5-methylbenzotriazole]", "values": [
      {"measurement": "time to sorption equilibrium", "setting": "[1]; 1% GAC w/vol, 10-2000 mg/L MeBT, no more than 4% change criterion", "value": "< 48", "unit": "h"},
      {"measurement": "affinity for granular activated carbon compared with benzene", "setting": "[1]; Calgon MRX 10×30 mesh, pH 2 to 5", "value": "approximately the same as that observed for benzene"},
      {"measurement": "soluble 5-MeBT content after exposure to GAC (HPLC)", "setting": "[1]; copper microcosms", "value": "less than 0.25 mg/L"},
      {"measurement": "soluble 5-MeBT content after exposure to GAC (HPLC)", "setting": "[1]; lead microcosms", "value": "less than 0.25 mg/L"},
      {"measurement": "soluble 5-MeBT content after exposure to GAC (HPLC)", "setting": "[1]; zinc microcosms", "value": "less than 0.25 mg/L"},
      {"measurement": "first pKa (dissociation)", "setting": "[2]", "value": "~2 and 2"},
      {"measurement": "second pKa (dissociation)", "setting": "[2]", "value": "~9"},
      {"measurement": "pKa", "setting": "[2]; weak organic acid", "value": "approximately 8.8"},
      {"measurement": "share of copper sequestered on GAC associated with an MeBT precipitate", "setting": "[3]; pH 2", "value": "almost none"},
      {"measurement": "Cu(II) removal efficiency, maximum", "setting": "[3]; pH 2, ligand to metal ratio 30:1, carbon 5 g/L", "value": 13, "unit": "%"},
      {"measurement": "share of copper removal associated with an MeBT precipitate", "setting": "[3]; pH 3", "value": "approximately 18%"},
      {"measurement": "Cu(II) removal", "setting": "[3]; pH 3, MeBT to Cu(II) molar ratios of 2, 10 and 30", "value": "32-35%"},
      {"measurement": "share of copper removal associated with an MeBT precipitate", "setting": "[3]; pH 4", "value": "~40", "unit": "%"},
      {"measurement": "potential shift on addition of MeBT to zinc-containing solutions", "setting": "[4]", "value": "no potential shifts"},
      {"measurement": "potential shift on addition of MeBT to zinc-containing solutions", "setting": "[4]; listed as methybenzotriazole", "value": "no significant potential shifts"},
      {"measurement": "share of lead sequestered on GAC associated with an MeBT precipitate", "setting": "[5]", "value": "approximately 25%"},
      {"measurement": "share of lead sequestered on GAC associated with soluble MeBT complex", "setting": "[5]", "value": "~75", "unit": "%"},
      {"measurement": "Pb(II) removal in the absence of GAC (precipitation)", "setting": "[5]; pH 2, MeBT to Pb(II) molar ratio 2", "value": "approximately 2.5%"},
      {"measurement": "Pb(II) removal in the absence of GAC (precipitation)", "setting": "[5]; pH 2, MeBT to Pb(II) molar ratio 10", "value": "~6", "unit": "%"},
      {"measurement": "Pb(II) removal in the absence of GAC (precipitation)", "setting": "[5]; pH 2, MeBT to Pb(II) molar ratio 30", "value": "~12", "unit": "%"},
      {"measurement": "precipitation-associated Pb(II) removal", "setting": "[5]; pH 3, absence of GAC", "value": "about 20%"},
      {"measurement": "Pb(II) removal efficiency, maximum", "setting": "[5]; pH 3, ligand to metal ratio approximately 30:1, carbon 5 g/L", "value": 82, "unit": "%"},
      {"measurement": "β (copper complexing agent)", "setting": "[6]", "value": "~10^15"},
      {"measurement": "DeFord-Hume method Log β1", "setting": "[6]; [10]", "value": 12.8},
      {"measurement": "DeFord-Hume method Log β2", "setting": "[6]; [10]", "value": 15.8},
      {"measurement": "Lingane method Log βn", "setting": "[6]; [10]", "value": 15.8},
      {"measurement": "Maximum coordination number (ligand: metal ratio)", "setting": "[6]; [10]", "value": 2},
      {"measurement": "β1 (first complex stability) from intercept of F1(X)", "setting": "[6]; [11]", "value": "~6×10^12"},
      {"measurement": "β2 (overall stability constant) from slope of F1(X)", "setting": "[6]; [11]", "value": "~7×10^15"},
      {"measurement": "β2 from intercept of F2(X) vs. [5-MeBT]", "setting": "[6]; [11]", "value": "7×10^15"},
      {"measurement": "Zn(II) removal efficiency, maximum", "setting": "[7]", "value": 9, "unit": "%"},
      {"measurement": "desorption of 5-MeBT from saturated Calgon MRX-P", "setting": "[8]", "value": "did not liberate measurable amounts"},
      {"measurement": "DeFord-Hume method Log β1", "setting": "[9]; [12]", "value": 3.3},
      {"measurement": "Lingane method Log βn", "setting": "[9]; [12]", "value": 3.8},
      {"measurement": "Maximum coordination number (ligand: metal ratio)", "setting": "[9]; [12]", "value": 1},
      {"measurement": "β1 from intercept of F1(X) vs. [MeBT]", "setting": "[9]; [13]", "value": "~1.8×10^3"},
      {"measurement": "β1 from slope of Fo(X) vs. [MeBT]", "setting": "[9]; [13]", "value": "~2.2×10^3"}
    ]}
  ]
}
